# Experimental data as given in a melting point compilation (Tetko et al.; mined from patent text by program, amines drawn as free bases though some values may be those of a salt).
row,melting point,Compound
1,113 to 114 °C,CCOC(=O)C(=C(c1ccc(F)cc1)c1ccc(F)cc1)c1nnn(CC)n1
2,154 to 158 °C,CCCc1c(OCCCCCCc2ccc3cc(O)c(O)cc3c2)ccc(C(=O)O)c1O
3,121 to 124 °C,OCC1C=CC(n2cnc3c(Cl)ncnc32)C1 (stereo not given)
4,214 to 216 °C,Nc1nc(-c2ccc(NC(=O)CN(Cc3ccccc3)C(=O)C3CCCCC3)cc2)cs1
5,170 °C,CS(=O)(=O)c1ccc(C(=O)C2=C(O)C3CCC(C3)C2=O)c([N+](=O)[O-])c1 (stereo not given)
6,125 °C,COc1ccc(S(=O)(=O)c2c(C(C)C)n(C)c3ccccc23)cc1
7,231 to 235 °C,Cc1cc(Br)cnc1CCCCNC1=NS(=O)(=O)c2ccc(Cl)cc21
8,69 to 72.5 °C,C#Cc1cc(F)c(-n2c(=O)cc(C(F)(F)F)n(C)c2=O)c2c1OC(C)C2 (stereo not given)
9,48 to 51 °C,O=c1oc2c(c(=O)n1C1CCCCCCC1)CCC2
10,99 to 100 °C,CC(C)(C)c1cc(CCc2ccccc2NC(=O)NC2CCN(Cc3cccc(F)c3)CC2)cc(C(C)(C)C)c1O
11,96 to 97 °C,CCCCCCOc1cc(CC#N)c(OCCCCCC)cc1CC#N
12,107 to 110 °C,CC(C)c1nc(C(C)C)c(CO)c(-c2ccc(F)cc2)c1/C=C/c1ccccc1
13,178 to 181 °C,Ic1ccc(-c2nc3ccccc3n2-c2ccccc2)cc1
14,108 °C,CCCCCCCc1ccc(C(=O)Oc2ccc(C(=O)O)c(Cl)c2)cc1
15,159 to 160 °C,Nc1nc(N)c(C=O)c(OCC2CCCCC2)n1
16,92 °C,ON=CCc1cccs1
17,219 to 220 °C,Cc1cnc(N2CCC(c3ccc(N)cc3)CC2)n1C
18,116 °C,CN(C1CCNCC1)S(=O)(=O)c1ccc(Nc2nccc(-c3ccc(F)cc3)n2)cc1
19,159 to 160 °C,CC(C)C(=O)Nc1ccc(C(=O)O)cc1N
20,200 to 205 °C,CC(=O)N1c2c(ccc3c2nc(C)n3C)[C@@H]2O[C@@H]2[C@H]1c1ccccc1
21,193 to 197 °C,O=C(c1ccc(SCCO)c([N+](=O)[O-])c1)c1ccc(SCCO)c([N+](=O)[O-])c1
22,242 to 244 °C,Cc1cc(Nc2ccnc(Nc3ccc(S(=O)(=O)N(CCNC(=O)OC(C)(C)C)C4CCN(C(=O)OC(C)(C)C)CC4)cc3)n2)ccc1F
23,131 to 132 °C,Nc1cc(C(=O)c2ccc(F)c(N)c2)ccc1F
24,118 to 121 °C,CCc1cc(Oc2c(Cl)cc(C(F)(F)F)cc2Cl)n[nH]1

row,melting point,Compound
1,125 to 126 °C,c1ccc2nc(CSc3nc4cccc5c4n3CCC5)ccc2c1
2,210 to 211 °C,CC(C)(C)c1cc(C(=O)NNC(N)=S)cc(C(C)(C)C)c1O
3,111 to 113 °C,N#CCCN(N)c1nc2ccccc2s1
4,86 °C,CC(C)(C)c1coc(N)c1C#N
5,97 to 98 °C,CCCN(Cc1ccc(-c2ccccc2-c2nnn[nH]2)cc1)C1(C(=O)O)C=NSN1 (stereo not given)
6,64 °C,O=C(N[C@@H](Cc1ccccc1)C(=O)CSCc1ccco1)OCc1ccccc1
7,220 °C,CC(=O)Oc1c(-c2ccc(=O)[nH]n2)cc(Br)c(C)c1Br
8,265 to 268 °C,O=C(Nc1ccc(Cl)cn1)c1cn2nc(N3CCN(C(=O)c4ccccc4C(F)(F)F)CC3)ccc2n1
9,245 °C,Nc1nnc(-c2ccc(F)c(F)c2Nc2ccc(Br)cc2F)o1
10,> 300 °C,O=C(O)C1=Cc2cc(-c3ccc(C(F)(F)F)cc3)ccc2S(=O)(=O)CC1
11,117 to 118 °C,COc1ccc(C(=O)c2cccc(CC(=O)O)c2N)cc1
12,72 to 73 °C,FC(F)(F)c1cc(-c2ccc(Cl)cc2)[nH]c1C(F)(F)F
13,52 to 54 °C,CS/C(=N\O)C(F)(F)F
14,143 °C,CCOC1(CCC(=O)O)c2cc(C)c(OC(C)=O)cc2Oc2cc(OC(C)=O)c(C)cc21
15,155 to 158 °C,Cc1cc(Cc2cc(C(F)(F)F)cc(C(F)(F)F)c2)ccc1NC(=O)c1cccc(Cl)c1C(=O)N[C@@H](C)CS(C)(=O)=O
16,60 to 63 °C,NC(=O)C1CCN(CCOc2ccccc2CCc2ccccc2)CC1
17,197 to 198 °C,CCOC(=O)c1cn(CC)c2c(F)c(F)c(F)c(C)c2c1=O
18,218 to 219 °C,O=C1CCN(C(=O)C(F)(F)F)c2ccccc2CN1
19,225 °C,CC(ON=c1c2nccc3cccc(c32)n2cccc12)C(=O)O (stereo not given)
20,81 to 83 °C,CCOC(=O)[C@H](C)Nc1c(C)cc(C)cc1C
21,70 °C,CCOc1c(C(=O)c2ccccc2)cnc2c1cnn2Cc1ccco1
22,170 °C,COc1ccc(Nc2ncc3ccc(=O)n(C(C)C)c3n2)cc1
23,> 300 °C,O=C(O)C1CCN(Cc2cc(Br)cc3[nH]c(=O)c(=O)[nH]c23)CC1
24,241 to 242 °C,CCOc1ccc(CC(=O)Nc2ccc(S(=O)(=O)Nc3ccccc3C(=O)O)cc2)cc1

row,melting point,Compound
1,230 to 235 °C,COc1ccc2c(=O)[nH]nc(-c3ccccc3)c2c1
2,300 to 301 °C,Cn1c(C(N)=O)c(-c2ccc(F)cc2)c2ncccc2c1=O
3,264 to 267 °C,COc1cc(C(=O)O)cc(OC)c1Cc1cnc(N)nc1N
4,233 to 237 °C,CCc1nc(O)c2sccc2n1
5,135 to 137 °C,CC1(C)C=C(C(=O)CCCN2CCC(C(O)(c3ccccc3)c3ccccc3)CC2)C=CC1CCO (stereo not given)
6,118 to 120 °C,CCc1ccc(OCCCN2CCC(C(O)(c3ccc(F)cc3)c3ccc(F)cc3)CC2)c(OC)c1
7,97 to 99 °C,COc1ccc2c(C)c(F)ccc2c1C(F)(F)F
8,179 to 180 °C,Cc1ccc(N)cc1Nc1cc(-c2cncnc2)ccn1
9,199 to 200 °C,CCn1cc(C(=O)NCc2ccc(Cl)cc2)c(=O)c2cc(CCl)sc21
10,164 to 165 °C,COc1cc(COc2nn(Cc3ccccc3)cc2C(N)=O)ccc1OCc1nc(-c2ccccc2)oc1C
11,86 to 88 °C,FC(F)(F)Oc1cccc(-c2nc(-c3ccccn3)no2)c1
12,120 to 122 °C,COc1cc(N2CCCCC2)c(Cl)cc1CC(=O)O
13,175 to 185 °C,O=C1Nc2cccc(Cl)c2C12COc1cc3c(cc12)OCO3 (stereo not given)
14,> 210 °C,N#Cc1ccc(C=C2CCCN(C(=O)c3ccc(Cl)cc3)C2)cc1
15,226 to 227 °C,Cc1ccc(-c2c(C(=O)NCc3ccccc3)n(CC[C@@H](C)CO)c(=O)c3ncccc23)cc1
16,184 to 188 °C,CS(=O)(=O)c1ccc(-c2cccn2-c2ccc(Cl)cc2)cc1
17,300 °C,CC(C)c1nc(O)c([N+](=O)[O-])c(O)n1
18,165 to 166 °C,O=C(CC(O)C(F)(F)F)c1cc(Cl)cc(Cl)c1 (stereo not given)
19,197 °C,O=c1[nH]cnc2c1nc(CC1CCN(Cc3ccccc3)CC1)n2Cc1ccc(F)cc1
20,249 to 251 °C,Cn1cc(S(C)=O)c(=O)c2sc(-c3cccc(Cl)c3)cc21 (stereo not given)
21,123 to 124 °C,CC(C)(C)COc1c(-c2ccc(S(N)(=O)=O)cc2)cnn(CC(F)(F)F)c1=O
22,83.5 to 85.5 °C,O=[N+]([O-])c1ccc(C2(Br)CCCCC2)cc1
23,287 to 289 °C,NC(=O)c1ccc([N+](=O)[O-])c(C(N)=O)c1
24,142 to 146 °C,O=C(O)C(=O)CC(=O)c1cccn1Cc1cc(F)ccc1F

row,melting point,Compound
1,121 °C,CCCCCc1ccc(C(=O)Nc2ccc3cc(CN4CCCC4)cnc3c2C)cc1
2,> 250 °C,O=C1NC(=O)C(=Cc2ccc3c(c2)c2ccccc2n3Cc2ccc(-c3ccccc3)cc2)S1
3,205 to 207 °C,COC(=O)CS(=O)(=O)Cc1cccc(-c2nc(=O)c3ccccc3s2)n1
4,88 to 89 °C,CC(=O)NCCCC(=O)c1ccc(Cl)cc1CCC(=O)NCC(=O)O
5,165 to 170 °C,COC(=O)c1ccc(C(=O)OC)c(S(N)(=O)=O)c1
6,211 to 212 °C,COCCOC1=CC(=O)C(Nc2ncnc3cc(OCCOC)c(OC)cc23)=CC1=O
7,96 to 97 °C,Cc1cc(CCCCCOc2ccc(-c3nc(C)c(C)s3)cc2)on1
8,149 to 151 °C,O=C1CCc2c(Br)cc([N+](=O)[O-])c(O)c21
9,50 to 70 °C,CCCCNS(=O)(=O)C[C@@H](O)C(O)[C@@H](CC1CCCCC1)NC(=O)[C@H](CC(C)C)NC(=O)OCc1ccccc1 (relative stereo)
10,133 to 134 °C,NN=C(c1ccccc1)c1cc(Cl)ccc1N
11,148 to 150 °C,C=C(C)OC(=O)N1c2cc(Cl)ccc2NC(=S)[C@@H]1C
12,176 to 178 °C,Cc1ccc(NC(=O)c2cc(Cl)ccc2NCC2CCN(C3CCCCC3)CC2)nc1
13,129 to 130 °C,Cc1cccc(-n2nc(C(F)(F)F)cc2-c2ccc(S(C)(=O)=O)c(F)c2)c1
14,245 to 246 °C,COc1cc(OC)c2c(=O)[nH]c(-c3cccc(OCCO)c3)nc2c1
15,242 to 243 °C,Cc1cc([N+](=O)[O-])ccc1-c1ccc(-c2ccc([N+](=O)[O-])cc2C)o1
16,113 to 115 °C,COC(=O)c1ccc(N2CCCC2CO)cc1N (stereo not given)
17,126 to 127 °C,Cc1c[nH]c(-c2ccc(F)cc2)c1-c1ccc(F)cc1
18,193 to 194 °C,COc1cc2c(c(Br)c1OC(C)=O)Sc1cc(C)ccc1N2
19,122 to 125 °C,CC(C)(CO)Oc1ccc2c(c1)CCc1c-2ccc2c1CCC2(C)C
20,123 to 125 °C,COc1ccc(-c2cc(=O)n(C)c(=O)n2CC(O)CNC(C)(C)C)cc1OC (stereo not given)
21,110 to 111 °C,CC(C)CC(C(=O)O)c1cc(OCC2CC2)c(-c2ccc3nonc3c2)cc1F (stereo not given)
22,184 to 186 °C,CC1Nc2ccc(-c3ccc(F)c(C#N)c3)cc2C(C)(C)O1 (stereo not given)

row,Compound,melting point
1,CC1CCCN1c1ccc(C#N)c2occc12 (stereo not given),82 to 83 °C
2,Cn1nc2n(c1=O)-c1ccc(Cl)nc1C(c1ccccc1Cl)=NC2,200 to 202 °C
3,CN1CCN(C(=O)OC2c3ccccc3C(=O)N2c2ccc3ccc(Br)nc3n2)CC1 (stereo not given),260 °C
4,CCN(CC)C(=O)NC1C=C2c3cccc4[nH]c(Br)c(c34)CC2N(C)C1 (stereo not given),204 to 208 °C
5,CN1CCC(c2cc3c(F)cccc3c(=O)[nH]2)CC1,220 to 222 °C
6,COCCNC(=O)c1ccc(N2CCC(N3C(=O)OCc4ccccc43)CC2)c([N+](=O)[O-])c1,192 to 193 °C
